Each structure is given as a SMILES string.

Data set [1] can be described thus: Pharmacokinetic analysis in serum (LC-MS/MS, non-compartmental).
Experimental: Non-compartmental analyses were performed on the data for day 1, 2, 15 and 17 using Winnonlin software (Phoenix Winnonlin 8.3.1.5014, Certara L.P., Princeton, NJ). […] Data were summarized per dose level and per occasion. Dose-exposure relationships were explored by plotting dose versus the various parameters. Accumulation was investigated using the AUC assessed at various days.
The subject of data set [2] is SKMEL28 melanoma cell lines. Also noted: method as in PMID 31874374. Conditions: intermittently administered; ref [19]; cited from earlier work.

On to `O=C(NOCCO)c1cc2nc[nH]c2c(F)c1Nc1ccc(Br)cc1Cl` [N-desmethyl-selumetinib], for which the accumulation entry in data set [1] (during three days of dosing and repeated three-day courses) is reported as “little to no accumulation”. In data set [1] (from 8h serum concentration curves, likely an underestimation), the average terminal half-life is recorded as 4.3 h. The “time to maximum serum concentration after oral intake” value in data set [1] (overall) is “approximately 1.7 hours”.
Consider `O=C(c1ccc(F)c(F)c1Nc1ccc(I)cc1F)N1CC(O)([C@@H]2CCCCN2)C1` [cobimetinib], for which the “effect of treatment interruptions on tumor growth” value in data set [2] was “Treatment interruptions resulted in tumor regrowth that could not be compensated when drug administration was resumed”.

These data come from publication PMC9557946, “Intermittent MEK inhibition for the treatment of metastatic uveal melanoma” (Frontiers in Oncology, 2022).
